EC50 and Emax data for 59 molecules are collected here from patent US20250263404A1, “AMINOPYRIDINES AS ACTIVATORS OF PI3 KINASE” (UCL Business Ltd, priority 2021, published 2025).

The assay has as its target PI3Kα (Homo sapiens, UniProt P42336). Kind of assay: pAKT S473 ELISA in A549 cells (PI3Kα activation). In kind it is cell-based. Also on record: endogenous in cells; host or cells: A549. The following applies: for EC50: A549 cells, 15 min treatment, pAKT S473 ELISA, normalised to Emax of 1 μM insulin, read-out: Av EC50; for Emax at 10 µM: A549, 0.25 h, read-out: <50% response at 10 μM. The procedure:
EC50 values were determined by quantifying phosphorylation on S473 residues of Akt in A549 human adenocarcinoma cells by ELISA (enzyme linked immunoadsorbent assay, R&D Systems, DYC887BE). A549 cells were seeded into 96-well plates (50,000 cells/well) in DMEM supplemented with 10% foetal bovine serum and 1% penicillin-streptomyocin. Following 24 h in culture cells were starved for 24 h in serum-free DMEM before 15 minute treatment with a concentration response curve of compounds. Experimental compounds were diluted in DMSO into […] 1:3 concentration response curves in polypropylene V-bottom plates (SLS MIC9050). Concentration response curves were diluted to a 3× stock in serum-free DMEM. Standard 8-point concentration response curves were performed at 50, 16.7, 5.6, 1.9, 0.6, 0.2, 0.07, 0.02 μM and serum-free DMEM containing 0.5% DMSO was used as a negative control. […] A549 cells were seeded at 50,000 cells per well in 96-well plates in DMEM (10% FBS+1% P/S). The next day cells were washed once with PBS before addition of serum-free DMEM for 24 h. On the day of treatment cells, were incubated in fresh serum-free DMEM prior to treatment. Compounds solubilised to 10 mM in DMSO were diluted 1:3 in an 8-point concentration response curve in DMSO. Concentration response curves were diluted in serum-free DMEM by transfer into intermediate plates using a BRAVO liquid handler (Agilent). Intermediate plates were then used to treat cell plates using the BRAVO liquid handler. Compound concentration response curves had atop concentration of 50 μM and a final well concentration of 0.5% DMSO. Cell plates were treated for 15 min at 37° C., 5% CO2 before being washed with ice-cold PBS and lysed in lysis buffer 6 (R&D Systems #895561) and freezing at −80° C. Levels of pAKT-S473 were determined using the phospho-AKT (S473) pan-specific Duoset IC ELISA (R&D Systems #DYC887BE) in 96-well white high-binding plates (Corning #3922) according to manufacturer's instructions. Endpoint luminescence was measured using a Sense (Hidex) platereader. […] Data were transformed and EC50 data were determined by variable slope (4 parameters) non-linear regression using Prism 7 (Graphpad).
In general terms: In an ELISA, binding on a coated surface is turned into a signal by an enzyme label.

Chain of PI3Kα (P42336 whole entry): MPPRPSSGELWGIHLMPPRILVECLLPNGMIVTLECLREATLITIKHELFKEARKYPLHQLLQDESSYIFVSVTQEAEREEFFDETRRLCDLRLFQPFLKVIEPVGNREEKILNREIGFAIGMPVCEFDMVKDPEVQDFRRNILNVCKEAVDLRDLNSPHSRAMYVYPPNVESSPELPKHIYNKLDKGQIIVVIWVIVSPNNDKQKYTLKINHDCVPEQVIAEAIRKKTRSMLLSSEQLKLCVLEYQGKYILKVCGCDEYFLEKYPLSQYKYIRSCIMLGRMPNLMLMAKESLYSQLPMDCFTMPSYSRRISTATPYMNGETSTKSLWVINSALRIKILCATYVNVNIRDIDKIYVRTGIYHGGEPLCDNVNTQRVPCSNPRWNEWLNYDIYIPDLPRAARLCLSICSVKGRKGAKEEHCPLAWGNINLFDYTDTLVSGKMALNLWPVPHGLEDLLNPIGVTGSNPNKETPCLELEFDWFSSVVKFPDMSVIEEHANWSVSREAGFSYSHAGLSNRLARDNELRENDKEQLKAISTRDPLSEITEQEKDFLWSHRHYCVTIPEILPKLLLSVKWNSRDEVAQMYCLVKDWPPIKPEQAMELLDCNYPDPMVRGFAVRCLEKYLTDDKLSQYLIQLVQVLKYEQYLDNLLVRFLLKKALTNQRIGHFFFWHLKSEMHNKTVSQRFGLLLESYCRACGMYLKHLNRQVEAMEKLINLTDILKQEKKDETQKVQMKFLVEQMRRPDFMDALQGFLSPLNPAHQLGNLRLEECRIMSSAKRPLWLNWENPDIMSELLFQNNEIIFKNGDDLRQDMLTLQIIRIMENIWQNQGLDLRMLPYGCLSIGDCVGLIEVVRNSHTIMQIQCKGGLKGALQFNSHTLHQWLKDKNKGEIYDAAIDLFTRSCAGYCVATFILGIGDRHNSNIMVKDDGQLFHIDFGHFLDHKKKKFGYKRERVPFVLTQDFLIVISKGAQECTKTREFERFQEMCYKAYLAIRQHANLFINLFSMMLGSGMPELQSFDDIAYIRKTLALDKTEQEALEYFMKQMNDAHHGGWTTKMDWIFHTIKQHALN
Chain of PI3Kα (P27986 whole entry partner): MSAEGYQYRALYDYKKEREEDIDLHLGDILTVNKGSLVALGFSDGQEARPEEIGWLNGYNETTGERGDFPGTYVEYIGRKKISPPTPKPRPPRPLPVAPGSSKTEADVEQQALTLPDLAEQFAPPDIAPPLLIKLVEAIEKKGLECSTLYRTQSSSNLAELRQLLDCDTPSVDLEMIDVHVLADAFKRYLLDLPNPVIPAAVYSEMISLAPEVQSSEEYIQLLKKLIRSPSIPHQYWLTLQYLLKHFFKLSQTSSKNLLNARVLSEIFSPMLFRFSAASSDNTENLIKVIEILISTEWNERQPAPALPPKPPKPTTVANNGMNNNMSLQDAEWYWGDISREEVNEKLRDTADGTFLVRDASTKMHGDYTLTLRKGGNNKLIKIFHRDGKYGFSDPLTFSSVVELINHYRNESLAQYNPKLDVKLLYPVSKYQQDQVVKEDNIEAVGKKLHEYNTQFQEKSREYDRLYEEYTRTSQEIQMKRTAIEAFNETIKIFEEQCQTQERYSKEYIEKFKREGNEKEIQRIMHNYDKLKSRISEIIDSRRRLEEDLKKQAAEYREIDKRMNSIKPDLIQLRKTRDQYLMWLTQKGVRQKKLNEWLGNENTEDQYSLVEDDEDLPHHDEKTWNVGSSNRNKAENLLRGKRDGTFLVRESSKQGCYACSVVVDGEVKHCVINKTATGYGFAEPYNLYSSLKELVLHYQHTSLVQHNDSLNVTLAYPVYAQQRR

A word on the EC50: it is the concentration that produces a half-maximal response. Regarding `COc1cc(Nc2cc(Nc3ccccc3)ccn2)cc(OC)c1OC` [1 (1902)], the EC50 is ≥ 50000 nM. The same measure, in the same setting: the value for `COc1cc(Nc2cc(Nc3ccn(C)n3)ccn2)cc(OC)c1OC` [2 (1903)] was ≥ 50000 nM.

On to `COc1cc(N2CCN(C)CC2)ccc1Nc1cc(Nc2ccn(C)n2)ccn1` [3 (1904)], for which the EC50 is 9710 nM. In the case of `COc1cc(Nc2cc(Nc3cnn(C)c3)ccn2)cc(OC)c1OC` [4 (1905)], the Emax at 10 µM was < 50% and the EC50 was found to be 2080 nM. The matching figures for `COc1cc(Nc2cc(Nc3ccc4c(c3)CCN4C(C)=O)ccn2)cc(OC)c1OC` [5 (1906)]: < 50% and 440 nM.

In the case of `COc1cc(Nc2cc(Nc3ccc4c(c3)N(C(C)=O)CC4)ccn2)cc(OC)c1OC` [6 (1907)], the Emax at 10 µM was < 50% and the EC50 worked out at 840 nM.

In the case of `COc1cc(N2CCOCC2)ccc1Nc1cc(Nc2cccc3c2N(C(C)=O)CC3)ccn1` [7 (1912)], the Emax at 10 µM is < 50% and the EC50 worked out at 540 nM.

For the molecule `CNC(=O)c1ccccc1Nc1ccnc(Nc2ccc(N3CCN(C)CC3)cc2OC)c1` [8 (1934)], the Emax at 10 µM is < 50% and the EC50 is > 50000 nM. The corresponding values for `CNC(=O)c1ccccc1Nc1ccnc(Nc2ccc(N3CCOCC3)cc2OC)c1` [9 (1935)] are < 50% and 1580 nM.

Regarding `COc1cc(N2CCN(C)CC2)ccc1Nc1cc(Nc2cccc3c2N(C(C)=O)CC3)cc(C)n1` [10 (1936)], the Emax at 10 µM is < 50% and the EC50 is 5360 nM. With `CC(=O)N1CCc2cccc(Nc3ccnc(Nc4ccc(N5CCN(C)CC5)cc4)c3)c21` [11 (1937)], the EC50 came to 2640 nM. On the same count and under the same terms, the value for `CCN1CCN(c2ccc(Nc3cc(Nc4cccc5c4N(C(C)=O)CC5)ccn3)cc2)CC1` [12 (1938)] was 1530 nM; that for `COc1cc(N2CCCCC2)ccc1Nc1cc(Nc2cccc3c2N(C(C)=O)CC3)ccn1` [13 (1941)] was 4380 nM; that for `COc1cc(N2CCN(C(C)C)CC2)ccc1Nc1cc(Nc2cccc3c2N(C(C)=O)CC3)ccn1` [14 (1942)] was 2270 nM. Same read-out and setting: under `COc1cc(N2CCN(C)CC2)ccc1Nc1cc(Nc2cccc3c2N(C(=O)C(C)C)CC3)ccn1` [15 (1943)] stands 2390 nM. Regarding `COc1cc(N2CCN(C)CC2)ccc1Nc1nccc(Nc2cccc3c2N(C(C)=O)CC3)c1C` [16 (1944)], the Emax at 10 µM is < 50% and the EC50 was 5530 nM.

With `COCC(=O)N1CCc2cccc(Nc3ccnc(Nc4ccc(N5CCN(C)CC5)cc4OC)c3)c21` [17 (1950)], the EC50 was found to be 4780 nM. On the same count and under the same terms, the value for `COc1cc(N2CCN(C)CC2)ccc1Nc1nccc(Nc2cccc3c2N(C(C)=O)CC3)c1F` [18 (1951)] was 3080 nM; that for `COc1cc(N2CCN(C)CC2)ccc1Nc1cc(Nc2cc(C)cc3c2N(C(C)=O)CC3)ccn1` [19 (1958)] was 1010 nM; that for `CCC(=O)N1CCc2cccc(Nc3ccnc(Nc4ccc(N5CCN(C)CC5)cc4OC)c3)c21` [20 (1959)] was 2280 nM. For `CCOCC(=O)N1CCc2cccc(Nc3ccnc(Nc4ccc(N5CCN(C)CC5)cc4OC)c3)c21` [21 (1961)], the EC50 was found to be 6680 nM. Still for that read-out and setting: under `CC(=O)N1CCc2cccc(Nc3ccnc(Nc4cccc(N5CCN(C)CC5)c4)c3)c21` [22 (1968)] stands 7850 nM. Same read-out and setting: the value for `COc1cc(N2CCN(C)CC2)ccc1Nc1cc(Nc2ccccc2)ccn1` [23 (1971)] was 4530 nM; that for `COc1cc(N2CCN(C)CC2)ccc1Nc1cc(Nc2ccc3c(c2)CCN3C(C)=O)ccn1` [24 (1989)] was 1250 nM; that for `CC(=O)N1CCc2cccc(Nc3ccnc(Nc4ccc(N5CCN(C)CC5)cc4C(F)(F)F)c3)c21` [25 (1992)] was > 50000 nM.

For the molecule `COc1cc(N2CCN(Cc3ccc(C)cc3)CC2)ccc1Nc1cc(Nc2cccc3c2N(C(C)=O)CC3)ccn1` [26 (1993)], the EC50 was > 50000 nM. On the same count and under the same terms, under `COCCN1CCN(c2ccc(Nc3cc(Nc4cccc5c4N(C(C)=O)CC5)ccn3)c(OC)c2)CC1` [27 (1994)] stands 1300 nM.

Consider `COc1cc(N2CCN(C)CC2)ccc1Nc1cc(Nc2cc(-c3ccccc3)nn2C)ccn1` [28 (1995)], for which the Emax at 10 µM is < 50% and the EC50 was found to be 1410 nM. Take `COc1cc(N2CCN(C)CC2)ccc1Nc1cc(Nc2cc(C(C)(C)C)nn2C)ccn1` [29 (1998)]: the EC50 amounted to 890 nM. Same read-out and setting: the value for `COc1cc(N2CCN(C)CC2)ccc1Nc1cc(Nc2cc(C(C)C)nn2C)ccn1` [30 (2000)] was 4890 nM; that for `CCOc1cc(N2CCN(C)CC2)ccc1Nc1cc(Nc2cccc3c2N(C(C)=O)CC3)ccn1` [31 (2007)] was 1550 nM. `CC(=O)N1CCc2cccc(Nc3ccnc(Nc4ccc(N5CCN(C)CC5)cc4OC(C)C)c3)c21` [32 (2008)]: the EC50 was 1460 nM. On to `COCCOc1cc(N2CCN(C)CC2)ccc1Nc1cc(Nc2cccc3c2N(C(C)=O)CC3)ccn1` [33 (2009)], for which the EC50 is 5230 nM. Same read-out and setting: under `CC(=O)N1CCc2cccc(Nc3ccnc(Nc4cccc(Oc5ccccc5)c4)c3)c21` [34 (2010)] stands > 50000 nM; under `CC(=O)N1CCc2cccc(Nc3ccnc(Nc4ccc(C(N)=O)cc4)c3)c21` [35 (2011)], 4970 nM; under `CC(=O)N1CCc2cccc(Nc3ccnc(Nc4ccc(Oc5ccccc5)cc4)c3)c21` [36 (2013)], 8810 nM. Same read-out and setting: under `CC(=O)N1CCc2cccc(Nc3ccnc(Nc4ccc(OCc5ccccc5)cc4)c3)c21` [37 (2014)] stands > 50000 nM; under `CC(=O)N1CCc2cccc(Nc3ccnc(Nc4ccc(N5CCOCC5)cc4)c3)c21` [38 (2015)], 1320 nM; under `CC(=O)N1CCc2cccc(Nc3ccnc(Nc4ccccc4)c3)c21` [39 (2016)], > 50000 nM. `CC(=O)N1CCc2cccc(Nc3ccnc(Nc4ccc(C(C)(C)C)cc4)c3)c21` [40 (2017)]: the Emax at 10 µM is < 50% and the EC50 was 7400 nM. The matching figures for `CC(=O)N1CCc2cccc(Nc3ccnc(Nc4ccc(C#N)cc4)c3)c21` [41 (2018)]: < 50% and 1740 nM. For `CNC(=O)c1ccc(Nc2cc(Nc3cccc4c3N(C(C)=O)CC4)ccn2)cc1` [42 (2019)], the EC50 was 1370 nM. `CC(=O)N1CCc2cccc(Nc3ccnc(Nc4ccc5ccccc5n4)c3)c21` [43 (2020)]: the EC50 is > 50000 nM. On to `CC(=O)N1CCc2cccc(Nc3ccnc(Nc4cc5ccccc5cn4)c3)c21` [44 (2021)], for which the 50% effective concentration (EC50) is > 50000 nM. Same read-out and setting: under `CC(=O)N1CCc2cccc(Nc3ccnc(Nc4cc(-c5ccccc5)nn4C)c3)c21` [46 (2023)] stands > 50000 nM. Take `CNC(=O)c1cccc(Nc2cc(Nc3cccc4c3N(C(C)=O)CC4)ccn2)c1` [47 (2026)]: the Emax at 10 µM is < 50% and the half-maximal effective concentration (EC50) worked out at 1760 nM. In the case of `CC(=O)N1CCc2cccc(Nc3ccnc(Nc4nn(C)c5ccccc45)c3)c21` [48 (2027)], the Emax at 10 µM was < 50% and the EC50 came out at 1480 nM. On to `CC(=O)N1CCc2cccc(Nc3ccnc(Nc4ccc5ncccc5c4)c3)c21` [49 (2028)], for which the Emax at 10 µM was < 50% and the EC50 amounted to 440 nM. As to `COc1cc(N2CCN(C)CC2)ccc1Nc1cc(Nc2ccnc3ccccc23)ccn1` [50 (2029)], the EC50 turned out to be 1360 nM. Same read-out and setting: the value for `COc1cc(N2CCN(C)CC2)ccc1Nc1cc(Nc2ccc3scnc3c2)ccn1` [51 (2031)] was 310 nM; that for `COc1cc(N2CCN(C)CC2)ccc1Nc1cc(Nc2ccc(S(C)(=O)=O)cc2)ccn1` [52 (2038)] was 3810 nM; that for `COc1cc(N2CCN(C)CC2)ccc1Nc1cc(Nc2ccncn2)ccn1` [53 (2039)] was 7850 nM. For the molecule `COc1cc(N2CCN(C)CC2)ccc1Nc1cc(Nc2cccc(S(C)(=O)=O)c2)ccn1` [54 (2043)], the EC50 was 1220 nM. Same read-out and setting: the value for `COc1cc(N2CCN(C)CC2)ccc1Nc1cc(Nc2ccncc2)ccn1` [55 (2045)] was > 6120 nM; that for `COc1ccc(Nc2ccnc(Nc3ccc(N4CCN(C)CC4)cc3OC)c2)cc1NC(C)=O` [56 (2046)] was 1280 nM. Turning to `COc1cc(N2CCN(C)CC2)ccc1Nc1cc(Nc2ccc3ncccc3c2)ccn1` [57 (2047)], the 50% effective concentration (EC50) was > 50000 nM. Consider `CNC(=O)c1cccc(Nc2ccnc(Nc3ccc(N4CCN(C)CC4)cc3OC)c2)c1` [58 (2049)], for which the EC50 stood at 1350 nM. For `COc1cc(N2CCN(C)CC2)ccc1Nc1cc(Nc2cccc(-c3ccccn3)c2)ccn1` [59 (2052)], the Emax at 10 µM is < 50% and the half-maximal effective concentration (EC50) worked out at 550 nM. Take `COc1cc(N2CCN(C)CC2)ccc1Nc1cc(Nc2cccc(NS(C)(=O)=O)c2)ccn1` [60 (2054)]: the EC50 is 2510 nM.
